Data published in patent publication US20070123551A1, “Use of metabotropic glutamarate receptor 5 (mglur5) antagonists for the treatment of gastrointestinal disorders” (priority 2003, published 2007).

System: WKY rats
Assay: in vivo gastric distension model (barostat, ramp and tonic distension) in conscious WKY rats
Design: species or system Wistar Kyoto rats
From the text: An in vivo gastric distension model is used as a model for functional gastrointestinal disorders, in particular for functional dyspepsia (Bayati A, Astin M, Ekman C, Mattsson H. Wistar Kyoto rats have impaired gastric adaptive accommodation in response to gastric distension. Gastroenterology 2003; 124 (4, suppl 1): W1471 (abstract)).
The gastric distension model enables detailed analysis of the physico-mechanical properties of the stomach, e.g. basal gastric tone, threshold for accommodation, accommodation rate, accommodation volume, and maximal gastric volume. […] Furthermore, it has been shown that patients with Functional Dyspepsia as well as Wistar Kyoto (WKY) rats have an impaired gastric adaptive response and also a lower total gastric volume as compared to healthy subjects and Sprague Dawley (SD) rats, respectively. In addition, the method has shown to be reproducible and reliable. Moreover, the advantage of the presently used barostat technique compared to other barostat techniques normally used in experimental clinical studies is that it is possible to discriminate between if a compound exerts its effect directly on gastric smooth muscles or if the effect involves the vagal reflex mechanism.
The rats are equipped with fistulas chronically implanted into the stomach. During gastric barostat experiments, a small inflatable plastic bag with a spherical shape is inserted through fistula into the glandular part of the stomach (middle to distal part in the rat). The experiments are performed in conscious rats. For detailed analysis of the physico-mechanical properties of the stomach, a combination of ramp and tonic distension paradigm is used. Pressure and volume data collected during experiments are saved for and further analysis.
In order to determine an animal's maximum gastric accommodation capacity, a balloon is inserted into the stomach of the animal and a four phase protocol which includes a start phase, a ramp phase, a tonic phase and an end phase is performed. A barostat system maintains the pressure by pumping air into and out of the balloon. The pressure applied to the balloon and the corresponding changes to the volume of the balloon are monitored throughout, e.g., using any barostat system known in the art (e.g., see Toma et al, Neurogastroenterol. Mot., 8, 19-28, 1996).
During the start phase a minimum distension pressure, e.g., 1 mmHg, is applied to the balloon until base line values are obtained. This is followed by a Ramp Phase. During this phase the pressure applied to the balloon is increased linearly with a constant increase in pressure to a preset maximum value. This second phase is then followed by the Tonic Phase at which the preset maximum pressure is kept constant. Finally, the pressure is rapidly dropped to the starting minimum distension pressure and this period is known as the End Phase.
To determine if an agent, e.g., a compound is useful in the treatment of FD, the maximum gastric accommodation rate in the WKY rat following administration of the compound is calculated. A compound of interest will be a compound that alters the maximum gastric accommodation rate in the animal and this is calculated by determining a difference in the maximum gastric accommodation rate before and after administration of the compound.
The Wistar Kyoto rats (WKY; M&B Denmark) are starved about 6 or 18 hours before each experiment depending on if the experiments are performed in the morning or in the afternoon. […]

[1] = 10 μmol/kg intravenously 3-5 min before start of ramp phase, compared to the control situation, FIG. 1

Cc1cccc(C#Cc2ccccc2)n1 [MPEP, 2-methyl-6-(phenylethynyl)-pyridine]
gastric volume during the ramp phase [1]: increase | gastric volume during the tonic phase [1]: increase | accommodation rate (the slope of volume curve during the tonic phase) (10 μmol/kg intravenously, FIG. 1): increased | maximum gastric volume (10 μmol/kg intravenously, compared to the control situation, FIG. 1): increased | accommodation capacity (10 μmol/kg intravenously, conclusion): increases
